The source of these data is PMC7852560 (Neuropsychopharmacology, 2020).

Each structure is given as a SMILES string.

Data set [1] concerns GluN1KD mice. Nature of the data set: Pre-pulse inhibition in GluN1KD mice. The following applies: ABM300 10 mg/kg, OLA 1 mg/kg i.p. In kind it is in vivo. The protocol:
(§1) Pre-Pulse Inhibition (PPI): PPI of the acoustic startle response was measured on day 3, via SR-LAB equipment and software from San Diego Instruments. Accelerometers were calibrated to 700±5 mV and output voltages were amplified and analyzed for voltage changes using SR Analysis (San Diego Instruments, San Diego, CA, USA), and exported as an excel file. Background white noise was maintained at 65dB. PPI was measured in a 30-min test with 80 randomized trials of: (1) 10 trials pulse alone (2) 10 trials pre-pulse alone (for each pre-pulse), (3) 10 trials pre-pulse plus pulse (for each pre-pulse), and (4) 10 trials no pulse. 5 pulse alone trials were performed before and after the 80 trials, totaling 90 trials per run. The pre-pulse (4dB, 8dB, or 16dB) was presented 100ms prior to the startle pulse […]. The inter-stimulus interval (ISI) was randomized between 5 and 20s. Experimental mice were placed in a cylindrical tube on a platform in a soundproof chamber. Mice were allowed to acclimatize in the chamber and to the background noise for 300s, followed by 5 consecutive pulse alone trials, then by 80 randomized trials (as described above) and then 5 consecutive pulse alone trials. Pre-pulse inhibition was measured as a decrease in the amplitude of startle response to a 100dB acoustic startle pulse, following each pre-pulse (4dB, 8dB and 16dB).

Data set [2] in a line: in vitro. In kind it is in vitro ADME, rat. The following applies: pH 7.4. The protocol: Microsomal stability assays were conducted by Cyprotex Ltd (Macclesfield, UK).
The study of drug stability in the presence of liver microsomes is accepted as a valuable model for permitting rapid prediction of in vivo drug stability (see Kerns & Di, 2008). Microsomal stability studies were performed by Cyprotex Ltd (Macclesfield, UK). […] Microsomes (final protein concentration 0.5 mg/mL), 0.1 M phosphate buffer pH 7.4, and test compound (final concentration 3 μM; diluted from 10 mM stock solution to give a final DMSO concentration of 0.25%) were incubated at 37°C prior to the addition of NADPH (final concentration 1 mM) to initiate the reaction with a final incubation volume of 25 µL. A control incubation was included for each compound tested, where 0.1 M phosphate buffer pH 7.4 was added instead of NADPH. The control compounds testosterone and 7-hydroxycoumarin were included in each experiment and all incubations were performed singularly for each compound. […] Following protein precipitation, the sample supernatants were combined in cassettes of up to 4 compounds and analyzed using standard LC-MS/MS conditions. From a plot of the natural logarithm of the peak area ratio (i.e., the ratio of compound peak area: internal standard peak area) against time, the gradient of the line was determined. Subsequently, half-life and intrinsic clearance were calculated using the equations below: […]

Data set [3] concerns the target Dopamine D1 (Homo sapiens, UniProt P21728). Briefly: SafetyScreen44 panel: Dopamine D1. Format: binding. To be noted: 1 µM. The protocol:
The screen assesses the selectivity of the compound on a diverse panel of targets that includes GPCRs, drug transporters, ion channels, nuclear receptors, kinases, and other non-kinase enzymes. The screen employs radioligand binding or enzyme assays for these 44 targets.
For receptor assays, binding was calculated as percent inhibition of the binding of a radioactively labeled ligand specific for each target. For enzyme assays, the inhibition effect was calculated as percent inhibition of control enzyme activity. Tests were performed in duplicate, and results are averages of those two tests. See https://www.eurofinsdiscoveryservices.com.

The target of data set [4] is T1, 5HT2B (Homo sapiens, UniProt P41595).
T1 construct: Eurofins Cerep
Nature of the data set: SafetyScreen44 panel: 5HT2B. Format: binding. The following applies: 1 µM. From the text:
See https://www.eurofinsdiscoveryservices.com.

Data set [5] deals with DATKO mice. Nature of the data set: Pre-pulse inhibition in DATKO mice. In kind it is in vivo. The following applies: 10 mg/kg i.p. The protocol:
as §1

Sequence of Dopamine D1 (P21728 whole entry): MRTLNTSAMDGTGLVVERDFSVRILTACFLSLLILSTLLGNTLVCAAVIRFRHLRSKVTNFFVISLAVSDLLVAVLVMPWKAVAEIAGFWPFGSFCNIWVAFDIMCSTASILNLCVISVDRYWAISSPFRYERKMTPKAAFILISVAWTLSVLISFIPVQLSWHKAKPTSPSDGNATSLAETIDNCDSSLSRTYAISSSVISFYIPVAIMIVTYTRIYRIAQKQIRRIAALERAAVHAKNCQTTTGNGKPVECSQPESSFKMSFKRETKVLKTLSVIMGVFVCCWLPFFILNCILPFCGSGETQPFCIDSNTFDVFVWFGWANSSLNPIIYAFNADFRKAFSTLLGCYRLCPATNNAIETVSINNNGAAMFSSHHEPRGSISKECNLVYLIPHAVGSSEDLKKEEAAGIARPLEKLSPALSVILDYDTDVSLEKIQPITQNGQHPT
T1 sequence (P41595 whole entry): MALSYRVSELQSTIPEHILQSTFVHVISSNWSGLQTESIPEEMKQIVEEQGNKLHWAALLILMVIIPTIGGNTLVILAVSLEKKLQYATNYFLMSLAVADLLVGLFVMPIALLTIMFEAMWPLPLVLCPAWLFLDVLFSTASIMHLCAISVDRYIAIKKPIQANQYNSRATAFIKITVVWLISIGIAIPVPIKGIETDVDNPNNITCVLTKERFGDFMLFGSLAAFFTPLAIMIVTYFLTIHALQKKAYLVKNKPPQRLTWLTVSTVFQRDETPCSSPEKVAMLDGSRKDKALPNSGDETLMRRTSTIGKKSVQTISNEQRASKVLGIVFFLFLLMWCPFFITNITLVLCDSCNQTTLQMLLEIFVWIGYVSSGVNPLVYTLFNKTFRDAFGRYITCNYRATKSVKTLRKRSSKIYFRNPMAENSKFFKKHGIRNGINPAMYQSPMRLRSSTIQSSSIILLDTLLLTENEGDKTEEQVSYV

A word on the half-life: it is the time in which the quantity being followed falls by half. Low values mean fast loss, high ones slow loss. The microsomal CLint is a measure of how fast metabolising enzymes remove a compound, apart from limits set by blood flow. A higher microsomal CLint goes with faster metabolism. `CCc1c(-c2nnc(Nc3ccccc3)o2)[nH]c2ccc(Cl)cc12` [ABM300, 5-(5-chloro-3-ethyl-1H-indol-2-yl)-N-phenyl-1,3,4-oxadiazol-2-amine]: in data set [1], the acoustic startle response result was “did not respond” and the “sensorimotor gating deficits (PPI; 4, 8, 16 dB)” value is listed as “did not respond”. The compound further gave a half-life at 3 µM in data set [2] (microsomes, rat liver microsomal preparations) of 1.83 h. The microsomal CLint at 3 µM in data set [2] (rat liver microsomes) came to 12.6 ± 2 µL/min/mg. Moreover, in data set [3], the “binding to Dopamine D1” value was “did not display any significant binding”. Besides, the “binding to 5HT2B” value in data set [4] was “did not display any significant binding”. The “sensorimotor gating deficits (PPI)” value in data set [5] is listed as “rescue of the PPI deficit at the 16 dB pre-pulse interval”. For the same compound, in data set [5] (data not shown), the acoustic startle response entry is “Neither genotype, nor treatment with ABM300, had an effect”.
